Results reported in US8741849B2, “Kinase inhibitors and uses thereof” (priority 2007, dated 2014).

What was measured:
AMPK (r) = test: kinase profiler assay (radiometric); assay type: biochemical, rat; conditions: @ = 100 μm peptide; less than 100 = kinase inhibition, greater than 100 = stimulation
Excerpt: KIP peptides […] [SEQ ID NO: 142], […] [SEQ ID NO: 173], and […] [SEQ ID NO: 163] were utilized to profile a variety of different kinases. The kinase profiler assay services provided by Upstate, a part of Millipore Corporation (Billerica, Mass.), were utilized to conduct the kinase profiles. The kinase profiler assays, which are radiometric, are based on measuring the amount of radioactive transfer from an ATP (y-^33P-ATP) to a substrate peptide using known concentrations of kinase enzyme, inhibitor, ATP, and buffer at defined time points and temperatures. Details on the reaction conditions for each kinase are available at www.millipore.com/drugdiscovery/dd3/KinaseProfiler. […] ROCK-1(h) (5-10 mU) was incubated with 8 mM MOPS pH 7.0, 0.2 mM EDTA, 30 i.IM of the peptide […] [SEQ ID NO: 189], 10 mM Mg acetate and y-^33P-ATP (specific activity approximately 500 cpm/pmol, concentration as required) in a final reaction volume of 25 pl. The reaction was initiated by the addition of the MgATP mixture in the absence and presence of inhibitor compounds. […] The filtermat was washed three times for 5 minutes in 75 mM phosphoric acid, once in methanol, dried and counted by scintillation counting. […] Scintillation counts (radioactivity) directly correlate with kinase activity. […]

PKB β (h) = molecular target: T1, PKB β (h) (Homo sapiens, UniProt P31751); test: kinase profiler assay (radiometric); assay type: biochemical; conditions: read-out: Profile-1, PKB β (h)
T1 construct: purchased Upstate (Millipore) KinaseProfiler service
Excerpt: KIP peptides […] [SEQ ID NO: 142], […] [SEQ ID NO: 173], and […] [SEQ ID NO: 163] were utilized to profile a variety of different kinases. The kinase profiler assay services provided by Upstate, a part of Millipore Corporation (Billerica, Mass.), were utilized to conduct the kinase profiles. The kinase profiler assays, which are radiometric, are based on measuring the amount of radioactive transfer from an ATP (y-^33P-ATP) to a substrate peptide using known concentrations of kinase enzyme, inhibitor, ATP, and buffer at defined time points and temperatures. Details on the reaction conditions for each kinase are available at www.millipore.com/drugdiscovery/dd3/KinaseProfiler. […] ROCK-1(h) (5-10 mU) was incubated with 8 mM MOPS pH 7.0, 0.2 mM EDTA, 30 i.IM of the peptide […] [SEQ ID NO: 189], 10 mM Mg acetate and y-^33P-ATP (specific activity approximately 500 cpm/pmol, concentration as required) in a final reaction volume of 25 pl. The reaction was initiated by the addition of the MgATP mixture in the absence and presence of inhibitor compounds. After incubation for 40 minutes at room temperature, the reaction was stopped by the addition of 5) 11 of a 3% phosphoric acid solution. 10 pl of the reaction mixture then was spotted onto a P30 filtermat. The filtermat was washed three times for 5 minutes in 75 mM phosphoric acid, once in methanol, dried and counted by scintillation counting. Where the kinase is uninhibited, the kinase phosphorylates a positively charged substrate with radioactive ATP, which then binds to a negatively charged filter membrane. Scintillation counts (radioactivity) directly correlate with kinase activity. […] All profile data less than 100 indicate kinase inhibition while data greater than 100 indicate kinase stimulation.

MAPKAP kinase II (MK2) = MAPKAP kinase II (MK2) (Homo sapiens, UniProt P49137); test: Omnia Lysate Assay for MAPKAP-K2: MK2 reaction velocity; assay type: biochemical; conditions: same assay conditions as Example 1
Description: Using the Omnia™ Lysate Assay for MAPKAP-K2 kit (Invitrogen, Carlsbad, Calif.), the reaction velocity for MK2 was determined in the presence and absence of each of the peptides listed in Table 2. Briefly, inhibitor peptide concentrations at 12.5 μmol, 25 μmol, 50 μmol and 100 μmol were evaluated. The kit contains a proprietary reaction buffer to which the following are added (final concentrations are given): 1 mM ATP, 0.2 mM DTT, 10 μM MAPKAP-K2 Sox-modified peptide substrate, 5 ng MK2, and the peptide inhibitor of interest (final volume of 50 μL). The reactions were performed in the wells of a low protein-binding 96-well plate provided with the kit, and fluorescence readings at 485 nm were taken every 30 seconds for 20 minutes in a Molecular Devices M5 Spectrophotometer. A peptide having the sequence […]
The MK2 inhibition activity of […] [SEQ ID NO: 134] transduction domain was compared with the MK2 inhibition activity of other known transduction domains—[…] [SEQ ID NO: 135] and […] [SEQ ID NO: 190]. The transduction domains were tested for MK2 activity using the same assay conditions as Example 1.
A set of MK2 inhibitor peptides having transduction domains was synthesized (see Table 5). Variants included peptides with the […] [SEQ ID NO: 134] transduction domain and alanine substituted for asparagine, alanine substituted for glycine, or both alanine substitutions in the therapeutic domain. The same peptides with the […] [SEQ ID NO: 135] transduction domain also were prepared. The reaction velocities of these variants were compared to the reaction velocity of a blank with no inhibitor added.

A549 lung cancer cells = test: Toxicity testing on cancer cell lines (MTT); assay type: cell-based; conditions: 72 hours, n=4, read-out: Cell Line IC50, A549
Description: (§1) The seven cell lines were: estrogen dependent MCF-7 breast cancer cells, non estrogen dependent MDA 231 breast cancer cells, SF 539 central nervous system cancer cells, HT29 colon cancer cells, Paca 2 pancreatic cancer cells, PC3 prostate cancer cells, and A549 lung cancer cells. For each cell line, exponentially growing cells were trypsinized and seeded into individual wells of a 96-well plate. Cells were maintained in a humidified, 5% CO2 incubator at 37° C. for 24 hours. The next day, fresh media was added along with 1 μl of a stock solution of peptide to give final peptide concentrations of 0.3 μM, 1 μM, 3 μM, 10 μM, 30 μM, and 100 μM (n=4). Doxorubicin was tested as a positive control. After incubating the cells for 72 hours, to each well was added 20 μl of 0.5% MTT {3-([…])-2,5 diphenyl tetrazolium bromide} solution. The plates then were incubated for an additional 4 hours, at which time the absorbance at 570 nm was measured for each well using a microplate reader. The absorbance was plotted as function of peptide concentration, and IC50 values were calculated for each peptide for each cell line.

HT29 colon cancer cells = test: Toxicity testing on cancer cell lines (MTT); assay type: cell-based; conditions: 72 hours, n=4, read-out: Cell Line IC50, HT29
Description: as §1

[1] = tested on: PC3 prostate cancer cells; test: Toxicity testing on cancer cell lines (MTT); assay type: cell-based; conditions: 72 hours, n=4, read-out: Cell Line IC50, PC3
Description: as §1

[2] = tested on: Paca 2 pancreatic cancer cells; test: Toxicity testing on cancer cell lines (MTT); assay type: cell-based; conditions: 72 hours, n=4, read-out: Cell Line IC50, Paca 2
Description: as §1

[3] = tested on: SF 539 central nervous system cancer cells; test: Toxicity testing on cancer cell lines (MTT); assay type: cell-based; conditions: 72 hours, n=4, read-out: Cell Line IC50, SF 539
Description: as §1

[4] = tested on: estrogen dependent MCF-7 breast cancer cells; test: Toxicity testing on cancer cell lines (MTT); assay type: cell-based; conditions: 72 hours, n=4, read-out: Cell Line IC50, MCF-7
Description: as §1

[5] = tested on: non estrogen dependent MDA 231 breast cancer cells; test: Toxicity testing on cancer cell lines (MTT); assay type: cell-based; conditions: 72 hours, n=4, read-out: Cell Line IC50, MDA 231
Description: as §1

[6] = tested on: MCF-7 breast cancer cells; test: Evaluation of apoptosis (Hoescht, Annexin V, propidium iodide staining); assay type: cell-based; conditions: MCF-7 cells, 24 hours, 3 μM or 10 μM
Description: MCF-7 breast cancer cells were seeded in individual wells of a 96-well plate and were maintained for 24 hours in a humidified, 5% CO2 incubator at 37° C. The next day, fresh media was added along with 1 μl of a stock solution of KIP peptide […] [SEQ ID NO: 166] to give a final concentration of 3 μM or 10 μM (n=4). After incubating the cells for 24 hours, cells were treated with Hoescht dye for nuclear staining, propidium iodide to stain for DNA from necrotic cells, and Annexin V to visualize apoptotic cells.

MAPKAP kinase II (MK2), sequence (P49137 whole entry, species assumed): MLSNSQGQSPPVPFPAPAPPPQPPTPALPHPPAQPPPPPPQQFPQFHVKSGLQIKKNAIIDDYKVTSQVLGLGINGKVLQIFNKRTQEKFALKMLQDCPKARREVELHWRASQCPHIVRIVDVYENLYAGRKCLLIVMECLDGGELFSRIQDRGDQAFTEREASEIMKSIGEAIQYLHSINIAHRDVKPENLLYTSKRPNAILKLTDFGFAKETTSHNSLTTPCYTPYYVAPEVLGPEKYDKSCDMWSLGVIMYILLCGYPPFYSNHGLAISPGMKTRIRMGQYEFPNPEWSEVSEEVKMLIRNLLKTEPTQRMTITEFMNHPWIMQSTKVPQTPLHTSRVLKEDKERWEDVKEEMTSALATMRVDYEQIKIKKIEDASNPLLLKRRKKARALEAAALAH
T1 sequence (P31751 whole entry): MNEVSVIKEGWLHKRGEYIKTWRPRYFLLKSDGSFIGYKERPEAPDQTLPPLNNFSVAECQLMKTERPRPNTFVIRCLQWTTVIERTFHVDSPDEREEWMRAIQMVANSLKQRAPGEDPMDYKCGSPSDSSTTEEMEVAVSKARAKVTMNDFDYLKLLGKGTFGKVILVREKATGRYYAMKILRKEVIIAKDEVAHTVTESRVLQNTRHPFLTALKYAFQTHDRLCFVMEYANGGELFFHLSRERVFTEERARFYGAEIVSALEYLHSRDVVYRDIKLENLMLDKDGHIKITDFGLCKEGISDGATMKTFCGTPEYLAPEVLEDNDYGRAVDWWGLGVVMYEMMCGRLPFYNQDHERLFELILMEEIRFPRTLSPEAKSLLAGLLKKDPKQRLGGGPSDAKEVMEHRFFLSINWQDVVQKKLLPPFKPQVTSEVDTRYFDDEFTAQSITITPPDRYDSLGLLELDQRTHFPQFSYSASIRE

CC(C)C[C@H](NC(=O)[C@H](C)NC(=O)[C@H](CCCCN)NC(=O)[C@H](CCCNC(=N)N)NC(=O)[C@H](Cc1ccc(O)cc1)NC(=O)[C@H](CC(C)C)NC(=O)[C@H](CCCNC(=N)N)NC(=O)[C@H](C)NC(=O)[C@H](C)NC(=O)[C@H](CC(C)C)NC(=O)[C@H](CCCCN)NC(=O)[C@H](C)NC(=O)[C@@H](N)Cc1ccccc1)C(=O)N[C@@H](C)C(=O)N[C@@H](CCCNC(=N)N)C(=O)N[C@@H](CCC(N)=O)C(=O)N[C@@H](CC(C)C)C(=O)NCC(=O)N[C@H](C(=O)N[C@@H](C)C(=O)N[C@@H](C)C(=O)O)C(C)C
Profile-1, AMPK (r) (AMPK (r)): 101 | activity at 100 µM (PKB β (h)): 16%

CC(C)C[C@H](NC(=O)[C@H](C)NC(=O)[C@H](CCCCN)NC(=O)[C@H](CCCNC(=N)N)NC(=O)[C@H](Cc1ccc(O)cc1)NC(=O)[C@H](CC(C)C)NC(=O)[C@H](CCCNC(=N)N)NC(=O)[C@H](C)NC(=O)[C@H](C)NC(=O)[C@H](CC(C)C)NC(=O)[C@H](CCCCN)NC(=O)[C@H](C)NC(=O)[C@H](Cc1ccccc1)NC(=O)[C@H](C)NC(=O)[C@@H](N)CCCCN)C(=O)N[C@@H](C)C(=O)N[C@@H](CCCNC(=N)N)C(=O)N[C@@H](CCC(N)=O)C(=O)N[C@@H](CC(C)C)C(=O)NCC(=O)N[C@H](C(=O)N[C@@H](C)C(=O)N[C@@H](C)C(=O)O)C(C)C
Profile-1, AMPK (r) (AMPK (r)): 118 | activity at 100 µM (PKB β (h)): 28%

CC[C@H](C)[C@H](NC(=O)[C@H](CCCNC(=N)N)NC(=O)[C@H](CCCNC(=N)N)NC(=O)[C@H](CC(C)C)NC(=O)[C@H](Cc1c[nH]c2ccccc12)NC(=O)[C@H](C)NC(=O)[C@H](CCCCN)NC(=O)[C@@H](NC(=O)[C@H](CCCNC(=N)N)NC(=O)[C@H](CCCNC(=N)N)NC(=O)[C@H](CC(C)C)NC(=O)[C@@H](N)Cc1c[nH]c2ccccc12)[C@@H](C)CC)C(=O)N[C@@H](CCCCN)C(=O)N[C@@H](C)C(=O)O
MK2 inhibition (in words) (MAPKAP kinase II (MK2)): inhibited MK2 significantly more than KKKALNRQLGVAA

CC[C@H](C)[C@H](NC(=O)[C@H](CCCCN)NC(=O)[C@H](CCCCN)NC(=O)[C@H](CC(C)C)NC(=O)[C@H](Cc1c[nH]c2ccccc12)NC(=O)[C@H](C)NC(=O)[C@H](CCCCN)NC(=O)[C@@H](NC(=O)[C@H](CCCNC(=N)N)NC(=O)[C@H](CCCNC(=N)N)NC(=O)[C@@H](N)Cc1c[nH]cn1)[C@@H](C)CC)C(=O)N[C@@H](CCCCN)C(=O)N[C@@H](C)C(=O)N[C@@H](CC(C)C)C(=O)N[C@@H](C)C(=O)N[C@@H](CCCNC(=N)N)C(=O)N[C@@H](CCC(N)=O)C(=O)N[C@@H](CC(C)C)C(=O)NCC(=O)N[C@H](C(=O)N[C@@H](C)C(=O)N[C@@H](C)C(=O)O)C(C)C [Peptide 1]
IC50 (A549 lung cancer cells): 8.7 µM | IC50 (HT29 colon cancer cells): 6.7 µM | IC50 [1]: 6 µM | IC50 [2]: 9 µM | IC50 [3]: 4.3 µM | IC50 [4]: 1.6 µM | IC50 [5]: 9.3 µM | Annexin V staining relative to propidium iodide staining (apoptosis) [6]: annexin V staining was much more intense than propidium iodide staining

N=C(N)NCCC[C@H](NC(=O)[C@H](CCCNC(=N)N)NC(=O)[C@H](CCCNC(=N)N)NC(=O)[C@H](CCC(N)=O)NC(=O)[C@H](CCCNC(=N)N)NC(=O)[C@H](CCCNC(=N)N)NC(=O)[C@H](CCCCN)NC(=O)[C@H](CCCCN)NC(=O)[C@H](CCCNC(=N)N)NC(=O)CNC(=O)[C@@H](N)Cc1ccc(O)cc1)C(=O)O [reference compound]
MK2 inhibition (in words) (MAPKAP kinase II (MK2)): also inhibit MK2 but not nearly as much as WLRRIKAWLRRIKA
